In patent US20260176262A1, “KRAS INHIBITORS, PREPARATION METHOD THEREFOR, AND PHARMACEUTICAL USE THEREOF” (ABBISKO THERAPEUTICS CO., LTD., priority 2021, published 2026) one finds IC50 data, which are given here for 14 compounds.

One experiment addresses KRAS^G12D/cRAF (Homo sapiens, UniProt P01116, G12D). Description: KRAS G12D/cRAF binding test (Alphalisa). Conditions: His-tagged KRAS G12D + GMPPNP, GST-tagged cRAF. How it is done: The compound was dissolved in 100% DMSO at a starting concentration of 5 mM and diluted in DMSO with a 3-fold serial dilution method for a total of 8 concentration points. 1 μL of the compound or DMSO at each concentration point was added into 99 μL of the experimental buffer to obtain 10× stock solution.
• 1) 4 μL of the working mixture solution of His-tagged KRAS^G12D and GMPPNP was added to the 384-well plate. • 2) The 10× compound stock solution or 1% DMSO was added to the 384-well plate. • 3) The plate was centrifuged at 1000 rpm for 1 minute. • 4) 4 μL of GST-tagged cRAF solution was added to the 384-well plate. • 5) The plate was centrifuged at 1000 rpm for 1 minute. • 6) The plate was incubated at room temperature for 15 minutes. • 7) 10 μL of detection working solution was added to the 384-well plate. • 8) The plate was centrifuged at 1000 rpm for 1 minute. • 9) The plate was incubated at room temperature for 60 minutes. • 10) The 384-well plate was placed into Envision and assay data was obtained.
(§1) The ratio for each compound concentration was calculated from the signal of the DMSO control group contained in each assay plate and the Alphalisa signal in each compound well. The compound concentration required for inhibitory concentration at 50% (IC50) was determined using a four-parameter logarithmic dose-response equation by testing the concentration of the compound and the value of the ratio. The endpoint value (IC50) of the reference compound was assessed in each experiment as a quality control measure. If the endpoint value is within three times the expected value, the experiment may be considered acceptable.
On the technique in general: Alpha assays give light when donor and acceptor beads are brought close together.

A further experiment concerns AGS cell. Briefly: Anti-proliferative 2D CTG assay, AGS cells. Conditions: Homo sapiens, 72 h. In kind it is cell-based. How it is done:
When the cell confluence was about 80%, the cells were isolated with 0.25% trypsin. Isolated cells were resuspended in 5 mL fresh cell culture medium and centrifuged for cell collection. Meanwhile, the number of cells was also calculated. The cells were then suspended in culture medium of medium concentration. The cells were placed into a 96-well plate with 1000 cells/well for AGS and 1000 cells/well for GP2D. The 96-well plate was placed in an incubator at 37° C. and incubated overnight.
1.2 Day 1 Compound Treatment From the 10 mM stock solution, with a ratio of 1:5, 10-point serial dilutions were performed. The 10× medium containing the compound was transferred into corresponding wells of the 96 wells. The final maximum compound concentration was […] and the final DMSO concentration was 0.1%. The 96-well plate was placed in a 37° C. incubator, the AGS cells were incubated for 3 days, and the GP2D cells were incubated for 4 days.
50 μL/well of detection reagent (CTG) was added to the AGS cells, and the signal was read in an Envision machine.
as §1, with “The percent inhibition (%) at” for “The ratio for”, “signal in” for “signal of”, “the HPE and ZPE” for “the DMSO”, “control wells and the fluorescence signal in the individual compound wells included” for “control group contained”, “assay plate. […]” for “assay plate and the Alphalisa signal in each compound well.”, “the inhibition percentage value.” for “the value of the ratio.”

Where [1] appears, read: AGS cells, incubated 3 days, CTG, class symbols, read-out: AGS cell IC50.

Like-named read-outs stand apart in the source and are kept apart here. Where only a bound is given, the exact number is not on record here.

Sequence of KRAS^G12D/cRAF (P01116 1-188 isoform P01116-2 G12D): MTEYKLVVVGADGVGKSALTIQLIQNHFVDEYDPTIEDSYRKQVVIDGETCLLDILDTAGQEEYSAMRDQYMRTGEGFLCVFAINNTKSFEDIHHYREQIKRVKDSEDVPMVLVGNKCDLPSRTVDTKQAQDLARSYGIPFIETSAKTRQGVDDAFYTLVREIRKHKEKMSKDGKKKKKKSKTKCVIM

Usually IC50 stands for the concentration at which inhibition is half-maximal. On to `C#Cc1c(F)ccc2cc(O)cc(-c3ncc4c(N5CC6CCC(COC)(C5)N6)nc(OC[C@@]56CCCN5C[C@H](F)C6)nc4c3F)c12` (stereo partly drawn) [Example 1, 5-ethynyl-6-fluoro-4-(8-fluoro-2-(((2R,7aS)-2-fluorotetrahydro-1H-pyrrolizin-7a-yl)methoxy)-4-(1-(methoxymethyl)-3,8-diazabicyclo[3.2.1]octan-3-yl)pyrido[4,3-d]pyrimidin-7-yl)naphthalen-2-ol], for which the IC50 on KRAS^G12D/cRAF (numeric values) is 100 nM; in the experiment with AGS cell (AGS, read-out: AGS cell IC50 (nM)) it was 20 nM.
Take `[2H]C12CCC(COC([2H])([2H])[2H])(CN(c3nc(OC[C@@]45CCCN4C[C@H](F)C5)nc4c(F)c(-c5cc(O)cc6ccc(F)c(C#C)c56)ncc34)C1)N2` (stereo partly drawn) [Example 3, 5-ethynyl-6-fluoro-4-(8-fluoro-2-(((2R,7aS)-2-fluorotetrahydro-1H-pyrrolizin-7a(5H)-yl)methoxy)-4-(1-((methoxy-d3)methyl)-3,8-diazabicyclo [3.2.1]octan-3-yl-5-d)pyrido [4,3-d]pyrimidin-7-yl)naphthalen-2-ol]: the concentration for half-maximal inhibition (IC50) in the experiment on AGS cell (setting [1]) was under 50 nM.
As for `C#Cc1c(F)ccc2cc(O)cc(-c3ncc4c(N5CC6CCC(COC(F)F)(C5)N6)nc(OC[C@@]56CCCN5C[C@H](F)C6)nc4c3F)c12` (stereo partly drawn) [Example 4, 4-(4-(1-((difluoromethoxy)methyl)-3,8-diazabicyclo[3.2.1]octan-3-yl)-8-fluoro-2-(((2R,7aS)-2-fluorotetrahydro-1H-pyrrolizin-7a(5H)-yl)methoxy)pyrido[4,3-d]pyrimidin-7-yl)-5-ethynyl-6-fluoronaphthalen-2-ol], the IC50 at KRAS^G12D/cRAF (class symbols) and in the experiment with AGS cell (setting [1]) was 50 to 500 nM throughout.
For `C#Cc1c(F)ccc2cc(O)cc(-c3ncc4c(N5CC6CCC(C#C)(C5)N6)nc(OC[C@@]56CCCN5C[C@H](F)C6)nc4c3F)c12` (stereo partly drawn) [Example 6, 5-ethynyl-4-(4-(1-ethynyl-3,8-diazabicyclo[3.2.1]octan-3-yl)-8-fluoro-2-(((2R,7aS)-2-fluorotetrahydro-1H-pyrrolizin-7a(5H)-yl)methoxy)pyrido[4,3-d]pyrimidin-7-yl)-6-fluoronaphthalen-2-ol], the IC50 was 50 to 500 nM at KRAS^G12D/cRAF (class symbols) and under 50 nM in the experiment on AGS cell (setting [1]).
`[2H]C([2H])([2H])C12CCC(CN(c3nc(OC[C@@]45CCCN4C[C@H](F)C5)nc4c(F)c(-c5cc(O)cc6ccc(F)c(C#C)c56)ncc34)C1)N2` (stereo partly drawn) [Example 7, 5-ethynyl-6-fluoro-4-(8-fluoro-2-(((2R,7aS)-2-fluorotetrahydro-1H-pyrrolizin-7a(5H)-yl)methoxy)-4-(1-(methyl-d3)-3,8-diazabicyclo[3.2.1]octan-3-yl)pyrido [4,3-d]pyrimidin-7-yl) naphthalen-2-ol]: the IC50 at KRAS^G12D/cRAF (numeric values) was 4.3 nM; in the experiment on AGS cell (AGS cells, incubated 3 days, CTG, numeric values, read-out: AGS cell IC50), 28 nM.
As for `C#Cc1c(F)ccc2cc(O)cc(-c3ncc4c(N5CC6CCC(CCF)(C5)N6)nc(OC[C@@]56CCCN5C[C@H](F)C6)nc4c3F)c12` (stereo partly drawn) [Example 8, 5-ethynyl-6-fluoro-4-(8-fluoro-4-(1-(2-fluoroethyl)-3,8-diazabicyclo[3.2.1]octan-3-yl)-2-(((2R,7aS)-2-fluorotetrahydro-1H-pyrrolizin-7a(5H)-yl)methoxy)pyrido[4,3-d]pyrimidin-7-yl) naphthalen-2-ol], the IC50 at KRAS^G12D/cRAF (class symbols) and in the experiment with AGS cell (setting [1]) was under 50 nM throughout.
In the case of `C#Cc1c(F)ccc2cc(O)cc(-c3ncc4c(N5CC6CCC(CCOC)(C5)N6)nc(OC[C@@]56CCCN5C[C@H](F)C6)nc4c3F)c12` (stereo partly drawn) [Example 9, 5-ethynyl-6-fluoro-4-(8-fluoro-2-(((2R,7aS)-2-fluorotetrahydro-1H-pyrrolizin-7a(5H)-yl)methoxy)-4-(1-(2-methoxyethyl)-3,8-diazabicyclo[3.2.1]octan-3-yl)pyrido[4,3-d]pyrimidin-7-yl) naphthalen-2-ol], the IC50 on KRAS^G12D/cRAF (class symbols) and with AGS cell (setting [1]) was 50 to 500 nM each time.
Consider `C#Cc1c(F)ccc2cc(O)cc(-c3ncc4c(N5CC6CCC(CSC)(C5)N6)nc(OC[C@@]56CCCN5C[C@H](F)C6)nc4c3F)c12` (stereo partly drawn) [Example 10, 5-ethynyl-6-fluoro-4-(8-fluoro-2-(((2R,7aS)-2-fluorotetrahydro-1H-pyrrolizin-7a(5H)-yl)methoxy)-4-(1-((methylthio)methyl)-3,8-diazabicyclo [3.2.1]octan-3-yl)pyrido[4,3-d]pyrimidin-7-yl)naphthalen-2-ol], for which the IC50 on KRAS^G12D/cRAF (class symbols) was over 500 nM; with AGS cell (setting [1]), 50 to 500 nM.
Taken in the same sequence, the figures for `C#Cc1c(F)ccc2cc(O)cc(-c3ncc4c(N5CC6CCC(CS(C)(=O)=O)(C5)N6)nc(OC[C@@]56CCCN5C[C@H](F)C6)nc4c3F)c12` (stereo partly drawn) [Example 11, 5-ethynyl-6-fluoro-4-(8-fluoro-2-(((2R,7aS)-2-fluorotetrahydro-1H-pyrrolizin-7a(5H)-yl)methoxy)-4-(1-((methanesulfonyl)methyl)-3,8-diazabicyclo[3.2.1]octan-3-yl)pyrido[4,3-d]pyrimidin-7-yl)naphthalen-2-ol] were over 500 nM and over 500 nM.
As for `C#Cc1c(F)ccc2cc(O)cc(-c3ncc4c(N5CC6CCC(C(C)O)(C5)N6)nc(OC[C@@]56CCCN5C[C@H](F)C6)nc4c3F)c12` (stereo partly drawn) [Example 13, 5-ethynyl-6-fluoro-4-(8-fluoro-2-(((2R,7aS)-2-fluorotetrahydro-1H-pyrrolizin-7a(5H)-yl)methoxy)-4-(1-(1-hydroxyethyl)-3,8-diazabicyclo[3.2.1]octan-3-yl)pyrido[4,3-d]pyrimidin-7-yl) naphthalen-2-ol], in the experiment on AGS cell (setting [1]), the IC50 was in the range of 50 to 500 nM.
Take `[2H]C([2H])([2H])OCC12CCC(CN(c3nc(OC[C@@]45CCCN4C[C@H](F)C5)nc4c(F)c(-c5cc(O)cc6cc(F)c(F)c(C#C)c56)ncc34)C1)N2` (stereo partly drawn) [Example 15, 5-ethynyl-6,7-difluoro-4-(8-fluoro-2-(((2R,7aS)-2-fluorotetrahydro-1H-pyrrolizin-7a(5H)-yl)methoxy)-4-(1-((methoxy-d3)methyl)-3,8-diazabicyclo[3.2.1]octan-3-yl)pyrido[4,3-d]pyrimidin-7-yl)naphthalen-2-ol]: the IC50 on KRAS^G12D/cRAF (class symbols) and in the experiment with AGS cell (setting [1]) was 50 to 500 nM in each case.
`[2H]C([2H])([2H])OCC12CCC(CN(c3nc(OC[C@@]45CCCN4C[C@H](F)C5)nc4c(F)c(-c5cc(O)cc6cc(C)c(F)c(C#C)c56)ncc34)C1)N2` (stereo partly drawn) [Example 17, 5-ethynyl-6-fluoro-4-(8-fluoro-2-(((2R,7aS)-2-fluorotetrahydro-1H-pyrrolizin-7a(5H)-yl)methoxy)-4-(1-((methoxy-d3)methyl)-3,8-diazabicyclo[3.2.1]octan-3-yl)pyrido[4,3-d]pyrimidin-7-yl)-7-methylnaphthalen-2-ol]: the IC50 in the experiment with AGS cell (setting [1]) is over 500 nM.
Take `C#Cc1c(F)ccc2cc(O)cc(-c3ncc4c(N5C[C@H]6CC[C@@](COC)(C5)N6)nc(OC[C@@]56CCCN5C[C@H](F)C6)nc4c3F)c12` [Example 45, 5-ethynyl-6-fluoro-4-(8-fluoro-2-(((2R,7aS)-2-fluorotetrahydro-1H-pyrrolizin-7a(5H)-yl)methoxy)-4-((1S,5R)-1-(methoxymethyl)-3,8-diazabicyclo[3.2.1]octan-3-yl)pyrido[4,3-d]pyrimidin-7-yl)naphthalen-2-ol]: on KRAS^G12D/cRAF (class symbols), the IC50 was over 500 nM.
As to `C#Cc1c(F)ccc2cc(O)cc(-c3ncc4c(N5C[C@@H]6CC[C@](CCF)(C5)N6)nc(OC[C@@]56CCCN5C[C@H](F)C6)nc4c3F)c12` [Example 56, 5-ethynyl-6-fluoro-4-(8-fluoro-4-((1S,5S)-1-(2-fluoroethyl)-3,8-diazabicyclo[3.2.1]octan-3-yl)-2-(((2R,7aS)-2-fluorotetrahydro-1H-pyrrolizin-7a(5H)-yl)methoxy)pyrido[4,3-d]pyrimidin-7-yl)naphthalen-2-ol], the IC50 in the experiment with AGS cell (setting [1]) was under 50 nM.
